According to the NIST ThermoML archive (doi:10.1021/je400122k):
± gives the expanded uncertainty stated by the source.

Conditions: Liquid; for speed of sound: Pulse-echo method; for mass density: Vibrating tube method

CCCCCCCCCCCCCC(=O)OCC [ethyl tetradecanoate]
Conditions | mass density, 343.15 K [kg/m3] | mass density, 353.15 K [kg/m3] | mass density, 363.15 K [kg/m3] | mass density, 373.15 K [kg/m3] | mass density, 383.15 K [kg/m3] | mass density, 393.15 K [kg/m3] | speed of sound, 343.15 K [m/s] | speed of sound, 363.15 K [m/s] | speed of sound, 383.15 K [m/s] | speed of sound, 403.15 K [m/s]
100 kPa | – | – | – | – | – | – | – | 1120 ± 4.7 | 1056.9 ± 4.4 | 996.1 ± 4.2
101.3 kPa | – | 815.6 ± 1 | 808.4 ± 1 | 800.1 ± 1 | 792.1 ± 1 | 784.5 ± 1 | – | – | – | –
10000 kPa | – | 823.9 ± 1 | 816.6 ± 1 | 809.9 ± 1.1 | 802.1 ± 1.1 | 794.6 ± 1.1 | – | 1181.8 ± 4.9 | 1122.3 ± 4.7 | 1067.2 ± 4.5
20000 kPa | – | 831.8 ± 1.1 | 824.6 ± 1.1 | 817.9 ± 1.1 | 810.7 ± 1.1 | 803.7 ± 1.1 | – | 1236.4 ± 5.1 | 1181.7 ± 4.9 | 1130.3 ± 4.7
30000 kPa | – | 838.7 ± 1.1 | 831.8 ± 1.1 | 825.5 ± 1.1 | 818.5 ± 1.1 | 812 ± 1.1 | – | 1287.1 ± 5.3 | 1235.6 ± 5.1 | 1186.1 ± 4.9
40000 kPa | – | 845 ± 1.1 | 838.6 ± 1.1 | 832.4 ± 1.1 | 825.9 ± 1.1 | 819.5 ± 1.1 | – | 1334.2 ± 5.5 | 1284.7 ± 5.3 | 1237.3 ± 5.1
50000 kPa | – | 850.8 ± 1.1 | 845 ± 1.1 | 838.8 ± 1.1 | 832.5 ± 1.1 | 826.4 ± 1.1 | – | 1377.5 ± 5.7 | 1330.3 ± 5.5 | 1284.9 ± 5.3
60000 kPa | – | 856.4 ± 1.1 | 850.6 ± 1.1 | 844.9 ± 1.1 | 838.9 ± 1.2 | 832.9 ± 1.2 | – | 1418.8 ± 5.8 | 1372.3 ± 5.6 | 1327.9 ± 5.5
70000 kPa | – | 861.8 ± 1.2 | 856.1 ± 1.2 | 850.6 ± 1.2 | 845 ± 1.2 | 839.8 ± 1.2 | – | 1457.6 ± 6 | 1412.6 ± 5.8 | 1370 ± 5.6
80000 kPa | – | 866.9 ± 1.2 | 861.3 ± 1.2 | 856.2 ± 1.2 | 850.5 ± 1.2 | 845.6 ± 1.2 | – | 1495.5 ± 6.1 | 1450.4 ± 5.9 | 1409.7 ± 5.8
90000 kPa | 877.5 ± 1.2 | 871.8 ± 1.2 | 866.3 ± 1.2 | 861.3 ± 1.2 | 855.9 ± 1.2 | 851 ± 1.2 | 1576.2 ± 6.4 | 1531 ± 6.3 | 1486.9 ± 6.1 | 1447.5 ± 5.9
100000 kPa | 882.1 ± 1.2 | 876.4 ± 1.2 | 871.1 ± 1.2 | 866.1 ± 1.2 | 861 ± 1.2 | 855.6 ± 1.2 | 1609.1 ± 6.6 | 1564.6 ± 6.4 | 1521.7 ± 6.2 | 1483.2 ± 6.1
